Read-outs that look alike come from different tables or passages of the source.
Experiments:
[1] = system: HCT116 WT cells; assay: HCT116 WT cell line proliferation (CellTiter-Glo cell viability, 6 days); assay type: cell-based; settings: HCT116 WT (parent) cells, 6 days of treatment, CellTiter-Glo cell viability, read-out: HCT-116 WT IC50
Summary of the method: (§1)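 Isogenic HCT116 pair (both MTAP alleles knocked out vs parent) in RPMI 1640 + 10% FBS, seeded overnight at 37° C, 5% CO2, then exposed 6 days to 8- or 9-point 1:3 dilutions from 1 or 10 μM. CellTiter-Glo luminescence; IC50 from sigmoidal fit, Hill slope fixed −1, top 100%, or 4-parameter logistic.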

[2] = system: HCT116 MTAP null cells; assay: HCT116 MTAP null cell line proliferation (CellTiter-Glo cell viability, 6 days); assay type: cell-based; settings: HCT116 MTAP null cells, 6 days of treatment, CellTiter-Glo cell viability, read-out: HCT-116 MTAP null IC50
Summary of the method: as §1

| IC50 ([1]; Homo sapiens, HCT-116, 144 h) [µM] | IC50 ([2]; HCT116-MTAP null, 144 h) [µM] | IC50 [1] [µM] | IC50 [2] [µM] | Structure (SMILES) |
| --- | --- | --- | --- | --- |
| 0.497 | 0.02 |  |  | C[C@H]1COC[C@@H](c2ccc(C(F)(F)F)cn2)N1C(=O)c1cc2c3c(c(N)nc2cn1)COC3 (racemic) [Example 339, (4-amino-1,3-dihydrofuro[3,4-c][1,7]naphthyridin-8-yl)((3R,5S)-3-methyl-5-(5-(trifluoromethyl)-2-pyridinyl)-4-morpholinyl)methanone and (4-amino-1,3-dihydrofuro[3,4-c][1,7]naphthyridin-8-yl)((3S,5R)-3-methyl-5-(5-(trifluoromethyl)-2-pyridinyl)-4-morpholinyl)methanone] |
| > 10 | > 1 |  |  | Nc1nc2cnc(C(=O)N3CCOC[C@H]3c3cnc(C(F)(F)F)nc3)cc2c2c1COC2 (single isomer, unassigned) [Example 611] |
| 7.27 | 0.087 |  |  | Nc1nc2cnc(C(=O)N3CCOC[C@@H]3c3ccc(CC(F)(F)F)cc3)cc2c2c1COC2 (single isomer, unassigned) [Example 604] |
| 0.616 | 0.017 |  |  | CC1COC[C@H](c2ccc(C(F)(F)F)cn2)N1C(=O)c1ccc2nc(N)c3c(c2c1)COC3 (single isomer, unassigned) [Example 583] |
| 2.92 | 0.082 |  |  | C[C@H]1CN(C(=O)c2ccc3nc(N)c4c(c3c2)COC4)[C@H](c2ccc(OC(F)(F)F)cc2)CO1 (single isomer, unassigned) [Example 586] |
| > 10 | > 1 |  |  | Nc1nc2cnc(C(=O)N3CCOC[C@@H]3c3cnc(C(F)(F)F)nc3)cc2c2c1COC2 (single isomer, unassigned) [Example 612] |
| > 10 | > 1 |  |  | N#Cc1ccc([C@@H]2COCCN2C(=O)c2ccc3nc(N)c4c(c3c2)COC4)nc1 (single isomer, unassigned) [Example 576] |
| 0.151 | 0.008 |  |  | C[C@@H]1COC[C@H](c2ccc(C(F)(F)F)cn2)N1C(=O)c1cc2c(cc1F)nc(N)c1c2cnn1C [Example 517, (4-amino-7-fluoro-3-methyl-3H-pyrazolo[3,4-c]quinolin-8-yl)((3R,5S)-3-methyl-5-(5-(trifluoromethyl)-2-pyridinyl)-4-morpholinyl)methanone] |
| 4.47 | 0.19 |  |  | Cn1ncc2c(N)nc3cc(F)c(C(=O)N4CC[C@H](Oc5ccc(C(F)(F)F)cc5)C4)cc3c21 (single isomer, unassigned) [Example 472] |
|  |  | 5.83 | 0.151 | Nc1nc2cc(F)c(C(=O)N3CCOCC3c3ccc(OC(F)F)nc3)cc2c2c1COC2 (racemic) [Example 385, (4-amino-7-fluoro-1,3-dihydrofuro[3,4-c]quinolin-8-yl)((3R)-3-(6-(difluoromethoxy)-3-pyridinyl)-4-morpholinyl)methanone and (4-amino-7-fluoro-1,3-dihydrofuro[3,4-c]quinolin-8-yl)((3S)-3-(6-(difluoromethoxy)-3-pyridinyl)-4-morpholinyl)methanone] |
| > 10 | 0.807 |  |  | Nc1nc2cnc(C(=O)N3CCC(F)(F)C[C@@H]3c3ccc(C(F)(F)F)cc3)cc2c2c1COC2 (single isomer, unassigned) [Example 598] |
| 0.12 | 0.006 |  |  | C[C@@H]1COC[C@H](c2ccc(C(F)(F)F)cc2)N1C(=O)c1cc2c3c(c(N)nc2cc1F)COC3 [Example 526, (4-amino-7-fluoro-1,3-dihydrofuro[3,4-c]quinolin-8-yl)((3R,5S)-3-methyl-5-(4-(trifluoromethyl)phenyl)-4-morpholinyl)methanone] |
| > 10 | 0.873 |  |  | N#Cc1ccc([C@H]2COCCN2C(=O)c2ccc3nc(N)c4c(c3c2)COC4)nc1 (single isomer, unassigned) [Example 577] |
| 1.98 | 0.049 |  |  | C[C@H]1OCc2c1c(N)nc1cnc(C(=O)N3CCOC[C@@H]3c3ccc(OC(F)(F)F)cc3)cc21 (single isomer, unassigned) [Example 619] |
| 15.3 | 0.162 |  |  | Cn1ncc2c(N)nc3cnc(C(=O)N4CCOC[C@@H]4c4ccc(OC(F)F)nn4)cc3c21 [Example 451, (4-amino-1-methyl-1H-pyrazolo[4,3-c][1,7]naphthyridin-8-yl)((3S)-3-(6-(difluoromethoxy)-3-pyridazinyl)-4-morpholinyl)methanone] |
| 32.8 | 0.838 |  |  | N#Cc1ccc(C2COCCN2C(=O)c2cc3c4c(c(N)nc3cn2)COC4)cc1 (racemic) [Example 388, 4-((3R)-4-((4-amino-1,3-dihydrofuro[3,4-c][1,7]naphthyridin-8-yl)carbonyl)-3-morpholinyl)benzonitrile and 4-((3S)-4-((4-amino-1,3-dihydrofuro[3,4-c][1,7]naphthyridin-8-yl)carbonyl)-3-morpholinyl)benzonitrile] |
| > 10 | 1.03 |  |  | Cc1ccc([C@H]2COCCN2C(=O)c2ccc3nc(N)c4c(c3c2)COC4)cn1 (single isomer, unassigned) [Example 606] |
| 0.06 | 0.004 |  |  | C[C@@H]1COC[C@H](c2ccc(OC(F)(F)F)cc2)N1C(=O)c1cc2c3c(c(N)nc2cc1Cl)COC3 [Example 530, (4-amino-7-chloro-1,3-dihydrofuro[3,4-c]quinolin-8-yl)((3R,5S)-3-methyl-5-(4-(trifluoromethoxy)phenyl)-4-morpholinyl)methanone] |
| > 10 | 0.936 |  |  | Nc1nc2ccc(C(=O)N3CCOC[C@@H]3c3ccc(C(F)(F)F)nn3)cc2c2c1COC2 (single isomer, unassigned) [Example 593] |
| 0.499 | 0.018 |  |  | Cn1ncc2c(N)nc3cc(Cl)c(C(=O)N4CC(O)(c5ccc(C(F)(F)F)cc5)C4)cc3c21 [Example 444, (4-amino-7-chloro-1-methyl-1H-pyrazolo[4,3-c]quinolin-8-yl)(3-hydroxy-3-(4-(trifluoromethyl)phenyl)-1-azetidinyl)methanone] |
| 4.36 | 0.102 |  |  | Nc1nc2ccc(C(=O)N3CCOC[C@@H]3c3ccc(C(F)(F)F)cc3)cc2c2c1COC2 (single isomer, unassigned) [Example 456] |
| 3.16 | 0.064 |  |  | CCOc1ccc([C@H]2COC[C@@H](C)N2C(=O)c2cc3c4c(c(N)nc3cn2)COC4)nn1 [Example 535, (4-amino-1,3-dihydrofuro[3,4-c][1,7]naphthyridin-8-yl)((3S,5R)-3-(6-ethoxy-3-pyridazinyl)-5-methyl-4-morpholinyl)methanone] |
| 1.72 | 0.029 |  |  | Cn1ncc2c(N)nc3cc(F)c(C(=O)N4CC[C@H](c5ccc(C(F)(F)F)cc5)C4)cc3c21 [Example 436, (4-amino-7-fluoro-1-methyl-1H-pyrazolo[4,3-c]quinolin-8-yl)((3R)-3-(4-(trifluoromethyl)phenyl)-1-pyrrolidinyl)methanone] |
| > 10 | 0.866 |  |  | Nc1nc2cnc(C(=O)N3CCCOC[C@@H]3c3ccc(C(F)(F)F)cc3)cc2c2c1COC2 (single isomer, unassigned) [Example 597, (4-amino-1,3-dihydrofuro[3,4-c][1,7]naphthyridin-8-yl)((3S)-3-(4-(trifluoromethyl)phenyl)-1,4-oxazepan-4-yl)methanone or (4-amino-1,3-dihydrofuro[3,4-c][1,7]naphthyridin-8-yl)((3R)-3-(4-(trifluoromethyl)phenyl)-1,4-oxazepan-4-yl)methanone] |
|  |  | 6.17 | 0.117 | Nc1nc2cc(F)c(C(=O)N3CCOCC3c3ccc(F)c(C(F)(F)F)c3)cc2c2c1COC2 (racemic) [Example 342, (4-amino-7-fluoro-1,3-dihydrofuro[3,4-c]quinolin-8-yl)((3R)-3-(4-fluoro-3-(trifluoromethyl)phenyl)-4-morpholinyl)methanone and (4-amino-7-fluoro-1,3-dihydrofuro[3,4-c]quinolin-8-yl)((3S)-3-(4-fluoro-3-(trifluoromethyl)phenyl)-4-morpholinyl)methanone] |
| 0.541 | 0.047 |  |  | C[C@@H]1COC[C@H](c2ccc(C(F)(F)F)cn2)N1C(=O)c1cc2c3c(c(N)nc2cn1)CCC3 [Example 515, (6-amino-8,9-dihydro-7H-cyclopenta[c][1,7]naphthyridin-2-yl)((3R,5S)-3-methyl-5-(5-(trifluoromethyl)-2-pyridinyl)-4-morpholinyl)methanone] |
| 3.61 | 0.04 |  |  | Cn1ncc2c(N)nc3cc(Cl)c(C(=O)N4CC(c5ccc(C(F)(F)F)cn5)C4)cc3c21 [Example 442, (4-amino-7-chloro-1-methyl-1H-pyrazolo[4,3-c]quinolin-8-yl)(3-(5-(trifluoromethyl)-2-pyridinyl)-1-azetidinyl)methanone] |
| 36.6 | 1.1 |  |  | Cn1ncc2c3cc(C(=O)N4CCOCC4c4ccc(C(F)(F)F)cn4)ccc3nc(N)c21 (racemic) [Example 499, (4-amino-3-methyl-3H-pyrazolo[3,4-c]quinolin-8-yl)((3R)-3-(5-(trifluoromethyl)-2-pyridinyl)-4-morpholinyl)methanone and (4-amino-3-methyl-3H-pyrazolo[3,4-c]quinolin-8-yl)((3S)-3-(5-(trifluoromethyl)-2-pyridinyl)-4-morpholinyl)methanone] |
